± gives the expanded uncertainty stated by the source.
Assay: xn = mol fraction of the nth substance listed
Conditions: 101 kPa, Liquid; for viscosity: Capillary tube (Ostwald / Ubbelohde) method; for mass density: Pycnometric method

CC(O)C(=O)[O-].[NH3+]CCO (stereo unspecified) [2-hydroxyethylammonium lactate] + O
Conditions | mass density [kg/m3] | viscosity [mPa·s]
303.15 K, x2 = 0 | 1226.1 ± 2.4 | 11341 ± 1100
303.15 K, x2 = 0.116 | 1225.3 ± 2.3 | 6523.5 ± 560
303.15 K, x2 = 0.2026 | 1223 ± 2.2 | 3828.7 ± 300
303.15 K, x2 = 0.3045 | 1220 ± 2.2 | 2137.9 ± 150
303.15 K, x2 = 0.4043 | 1216.5 ± 2.1 | 1051 ± 66
303.15 K, x2 = 0.5027 | 1210.1 ± 2.1 | 498.98 ± 27
303.15 K, x2 = 0.6023 | 1203.2 ± 2.1 | 212 ± 10
303.15 K, x2 = 0.7016 | 1190.3 ± 2 | 74.69 ± 3.2
303.15 K, x2 = 0.8022 | 1167.2 ± 2 | 22.28 ± 0.95
303.15 K, x2 = 0.9007 | 1121 ± 2 | 5.19 ± 0.22
303.15 K, x2 = 0.9501 | 1076 ± 2 | 2.24 ± 0.09
308.15 K, x2 = 0 | 1223.1 ± 2.4 | 6699.9 ± 580
308.15 K, x2 = 0.116 | 1222.2 ± 2.3 | 3975.1 ± 320
308.15 K, x2 = 0.2026 | 1219.9 ± 2.2 | 2401.1 ± 170
308.15 K, x2 = 0.3045 | 1216.9 ± 2.2 | 1372.6 ± 90
308.15 K, x2 = 0.4043 | 1213.4 ± 2.1 | 675.18 ± 39
308.15 K, x2 = 0.5027 | 1206.9 ± 2.1 | 343.45 ± 17
308.15 K, x2 = 0.6023 | 1200.2 ± 2.1 | 156.6 ± 7
308.15 K, x2 = 0.7016 | 1187.2 ± 2 | 56.32 ± 2.3
308.15 K, x2 = 0.8022 | 1164.2 ± 2 | 18.03 ± 0.73
308.15 K, x2 = 0.9007 | 1118.2 ± 2 | 4.46 ± 0.18
308.15 K, x2 = 0.9501 | 1073.5 ± 2 | 1.97 ± 0.08
313.15 K, x2 = 0 | 1220.4 ± 2.5 | 4144.6 ± 330
313.15 K, x2 = 0.116 | 1219.5 ± 2.3 | 2468.4 ± 180
313.15 K, x2 = 0.2026 | 1217.1 ± 2.2 | 1570.4 ± 110
313.15 K, x2 = 0.3045 | 1214.1 ± 2.2 | 900.49 ± 55
313.15 K, x2 = 0.4043 | 1210.6 ± 2.1 | 458.18 ± 25
313.15 K, x2 = 0.5027 | 1204.1 ± 2.1 | 243.72 ± 12
313.15 K, x2 = 0.6023 | 1197.3 ± 2.1 | 109.99 ± 4.7
313.15 K, x2 = 0.7016 | 1184.3 ± 2 | 43.42 ± 1.8
313.15 K, x2 = 0.8022 | 1161.5 ± 2 | 14.62 ± 0.59
313.15 K, x2 = 0.9007 | 1115.7 ± 2 | 3.83 ± 0.16
313.15 K, x2 = 0.9501 | 1071.2 ± 2 | 1.74 ± 0.07
318.15 K, x2 = 0 | 1217.4 ± 2.5 | 2653.8 ± 200
318.15 K, x2 = 0.116 | 1216.3 ± 2.3 | 1615.5 ± 110
318.15 K, x2 = 0.2026 | 1213.9 ± 2.3 | 1047.4 ± 66
318.15 K, x2 = 0.3045 | 1211 ± 2.2 | 601.07 ± 34
318.15 K, x2 = 0.4043 | 1207.6 ± 2.1 | 321.24 ± 16
318.15 K, x2 = 0.5027 | 1201 ± 2.1 | 174.88 ± 7.9
318.15 K, x2 = 0.6023 | 1194.2 ± 2.1 | 83.91 ± 3.5
318.15 K, x2 = 0.7016 | 1181.2 ± 2 | 34.39 ± 1.4
318.15 K, x2 = 0.8022 | 1158.4 ± 2 | 11.85 ± 0.48
318.15 K, x2 = 0.9007 | 1112.7 ± 2 | 3.35 ± 0.14
318.15 K, x2 = 0.9501 | 1068.4 ± 2 | 1.57 ± 0.06
323.15 K, x2 = 0 | 1214.9 ± 2.5 | 1733.6 ± 120
323.15 K, x2 = 0.116 | 1213.7 ± 2.3 | 1084.5 ± 68
323.15 K, x2 = 0.2026 | 1211.3 ± 2.3 | 717.58 ± 42
323.15 K, x2 = 0.3045 | 1208.3 ± 2.2 | 418.69 ± 22
323.15 K, x2 = 0.4043 | 1204.9 ± 2.1 | 232.51 ± 11
323.15 K, x2 = 0.5027 | 1198.1 ± 2.1 | –
323.15 K, x2 = 0.6023 | 1191.5 ± 2.1 | 64.89 ± 2.6
323.15 K, x2 = 0.7016 | 1178.4 ± 2 | 27.88 ± 1.1
323.15 K, x2 = 0.8022 | 1155.7 ± 2 | 9.96 ± 0.4
323.15 K, x2 = 0.9007 | 1110.1 ± 2 | 2.94 ± 0.12
323.15 K, x2 = 0.9501 | 1065.8 ± 2 | 1.41 ± 0.06
328.15 K, x2 = 0 | 1212 ± 2.5 | 1182.5 ± 76
328.15 K, x2 = 0.116 | 1210.6 ± 2.3 | 742.12 ± 44
328.15 K, x2 = 0.2026 | 1208.1 ± 2.3 | 478.37 ± 26
328.15 K, x2 = 0.3045 | 1205.3 ± 2.2 | 299.81 ± 15
328.15 K, x2 = 0.4043 | 1201.7 ± 2.1 | 173.38 ± 7.8
328.15 K, x2 = 0.5027 | 1195.1 ± 2.1 | 99.46 ± 4.2
328.15 K, x2 = 0.6023 | 1188.4 ± 2.1 | 50.52 ± 2
328.15 K, x2 = 0.7016 | 1175.3 ± 2.1 | 22.65 ± 0.91
328.15 K, x2 = 0.8022 | 1152.6 ± 2.1 | 8.43 ± 0.34
328.15 K, x2 = 0.9007 | 1107 ± 2.1 | 2.61 ± 0.11
328.15 K, x2 = 0.9501 | 1063 ± 2.1 | 1.25 ± 0.05

Reference: the NIST ThermoML archive (doi:10.1021/je3009073)
